Source: patent publication US20220241409A1, “WATER SOLUBLE ADJUVANT AND COMPOSITION CONTAINING SAME” (Sumitomo Dainippon Pharma Co., Ltd., priority 2019, published 2022)
pEC50: −log10 of the molar value.

Key:
human TLR7 = biological target: T1, human TLR7 (Homo sapiens, UniProt Q9NYK1); assay: Human TLR7 reporter gene assay (Test 1); type: cell-based; details: half-maximal SEAP induction, TLR7/NF-κB/SEAPorter HEK293 cell line, overnight 37° C., 0.1% DMSO
T1 construct: expresses full-length human TLR7 and secretory alkaline phosphatase (SEAP) reporter gene; host or cells: TLR7/NF-κB/SEAPorter HEK293 cell line
T1 sequence (Q9NYK1 27-1049): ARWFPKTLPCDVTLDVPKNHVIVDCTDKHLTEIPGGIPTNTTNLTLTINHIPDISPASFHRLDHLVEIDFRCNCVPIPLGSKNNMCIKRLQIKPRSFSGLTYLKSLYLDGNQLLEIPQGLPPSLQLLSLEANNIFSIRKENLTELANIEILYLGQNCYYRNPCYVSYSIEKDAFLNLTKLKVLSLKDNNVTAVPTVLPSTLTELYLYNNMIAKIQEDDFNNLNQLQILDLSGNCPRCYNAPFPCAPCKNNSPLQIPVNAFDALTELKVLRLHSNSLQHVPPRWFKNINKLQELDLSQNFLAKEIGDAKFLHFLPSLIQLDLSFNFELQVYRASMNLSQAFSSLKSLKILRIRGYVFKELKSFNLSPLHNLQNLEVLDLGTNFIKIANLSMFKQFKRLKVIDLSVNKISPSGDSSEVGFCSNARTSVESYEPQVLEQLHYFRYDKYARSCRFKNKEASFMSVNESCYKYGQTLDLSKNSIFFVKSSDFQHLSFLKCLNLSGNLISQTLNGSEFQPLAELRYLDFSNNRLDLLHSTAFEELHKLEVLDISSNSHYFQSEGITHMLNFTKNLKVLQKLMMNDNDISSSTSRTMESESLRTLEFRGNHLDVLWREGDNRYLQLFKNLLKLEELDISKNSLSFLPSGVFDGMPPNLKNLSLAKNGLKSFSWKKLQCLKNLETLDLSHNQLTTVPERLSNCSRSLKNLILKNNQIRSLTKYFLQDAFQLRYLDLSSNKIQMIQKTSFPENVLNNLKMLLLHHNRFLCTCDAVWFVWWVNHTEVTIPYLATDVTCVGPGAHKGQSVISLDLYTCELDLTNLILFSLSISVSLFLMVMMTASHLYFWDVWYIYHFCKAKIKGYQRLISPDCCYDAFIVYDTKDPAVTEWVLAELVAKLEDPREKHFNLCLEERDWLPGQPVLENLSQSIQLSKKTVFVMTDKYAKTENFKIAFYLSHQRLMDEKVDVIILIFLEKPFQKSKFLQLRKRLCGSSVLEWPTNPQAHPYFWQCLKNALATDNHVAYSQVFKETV
Excerpt: TLR7/NF-κB/SEAPorter™ HEK293 cell line (Imgenex Corporation) is a stably co-transfected cell line which expresses full-length human TLR7 and secretory alkaline phosphatase (SEAP) reporter gene under the transcriptional regulation of an NF-κB response element. The TLR7 expression of the cell line has been already tested by flow cytometry. Transfectants with stable expression were selected using the antibiotic blasticidin and Geneticin. TLR signaling leads to the translocation of NF-κB and the activation of the promoter results in expression of the SEAP gene. TLR7-specific activation was assessed by determining the level of SEAP produced following overnight incubation of the cells at 37° C. with each compound prepared in Examples and Reference examples in the presence of 0.1% (v/v) dimethylsulfoxide (DMSO). The human TLR7 activity for the present compound was assessed by human TLR7 reporter gene assay, and the results are shown in Tables 6 and 7 as the compound concentration which produced half of the maximal level of SEAP induction (EC50).

mouse TLR7 = biological target: T2, mouse TLR7 (Mus musculus, UniProt P58681); assay: Mouse TLR7 reporter gene assay (Test 2); type: cell-based; details: half-maximal SEAP induction, HEK-Blue mTLR7 cell line, overnight 37° C., 0.1% DMSO
T2 construct: expresses full-length mouse TLR7 and secretory SEAP reporter gene; host or cells: HEK-Blue mTLR7 cell line
T2 sequence (P58681 27-1050): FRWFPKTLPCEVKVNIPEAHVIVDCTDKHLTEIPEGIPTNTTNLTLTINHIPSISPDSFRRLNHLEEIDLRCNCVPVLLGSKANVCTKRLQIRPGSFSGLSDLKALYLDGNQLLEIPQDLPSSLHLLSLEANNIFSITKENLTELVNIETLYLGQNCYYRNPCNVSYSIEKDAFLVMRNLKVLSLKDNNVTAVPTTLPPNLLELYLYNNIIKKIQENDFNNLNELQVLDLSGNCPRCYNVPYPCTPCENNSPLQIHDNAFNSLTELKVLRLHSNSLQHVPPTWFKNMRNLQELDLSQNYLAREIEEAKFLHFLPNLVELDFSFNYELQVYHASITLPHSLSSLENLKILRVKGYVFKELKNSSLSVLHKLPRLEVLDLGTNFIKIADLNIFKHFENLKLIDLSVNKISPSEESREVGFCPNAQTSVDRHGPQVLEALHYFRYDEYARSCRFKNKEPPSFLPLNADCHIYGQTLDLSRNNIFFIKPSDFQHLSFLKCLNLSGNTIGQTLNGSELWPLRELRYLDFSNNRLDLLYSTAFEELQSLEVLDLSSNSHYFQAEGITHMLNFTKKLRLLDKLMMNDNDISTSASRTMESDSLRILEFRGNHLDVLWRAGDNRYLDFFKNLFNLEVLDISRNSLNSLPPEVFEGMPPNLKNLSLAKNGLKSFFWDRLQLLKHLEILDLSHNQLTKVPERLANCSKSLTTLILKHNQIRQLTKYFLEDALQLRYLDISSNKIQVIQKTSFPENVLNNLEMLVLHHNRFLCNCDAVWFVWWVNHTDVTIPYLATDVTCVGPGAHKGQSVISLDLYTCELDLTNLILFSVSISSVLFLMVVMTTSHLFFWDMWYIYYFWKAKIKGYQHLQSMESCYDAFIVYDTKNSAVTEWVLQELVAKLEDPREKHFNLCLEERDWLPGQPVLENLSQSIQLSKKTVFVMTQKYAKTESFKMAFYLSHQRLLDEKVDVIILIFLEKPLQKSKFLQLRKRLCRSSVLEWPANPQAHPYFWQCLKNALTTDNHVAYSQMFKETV
Excerpt: HEK-Blue™ mTLR7 cell line (Invivogen) is a stably co-transfected cell line which expresses full-length mouse TLR7 and secretory SEAP reporter gene under the transcriptional regulation of an NF-κB response element. The TLR7 expression of the cell line has been already tested by RT-PCR. Transfectants with stable expression were selected using the antibiotic blasticidin and Zeocin. TLR signaling leads to the translocation of NF-κB and the activation of the promoter results in expression of the SEAP gene. TLR7-specific activation was assessed by determining the level of SEAP produced following overnight incubation of the cells at 37° C. with each compound prepared in Examples and Reference examples in the presence of 0.1% (v/v) DMSO. The mouse TLR7 activity for the present compound was assessed by mouse TLR7 reporter gene assay, and the results are shown in Tables 8 and 9 as the compound concentration which produced half of the maximal level of SEAP induction (EC50).

## CCCCOc1nc(N)c2[nH]c(=O)n(Cc3ccc(CN(C)CCOCCOCCOCCOCCO)nc3)c2n1 [Example 2, 6-amino-2-butoxy-9-{[6-(16-hydroxy-2-methyl-5,8,11,14-tetraoxa-2-azahexadecan-1-yl)pyridin-3-yl]methyl}-7,9-dihydro-8H-purin-8-one-trifluoroacetate]
Human TLR7; Table 6, Examples
  pEC50: 6.11
Mouse TLR7; Table 8, Examples
  pEC50: 6.29

## CCCCOc1nc(N)c2[nH]c(=O)n(Cc3ccc(CN(C)CCOCCOCCOCCOCCO)cc3)c2n1 [Example 3, 6-amino-2-butoxy-9-{[4-(16-hydroxy-2-methyl-5,8,11,14-tetraoxa-2-azahexadecan-1-yl)phenyl]methyl}-7,9-dihydro-8H-purin-8-one]
Human TLR7; Table 6, Examples
  pEC50: 7.62
Mouse TLR7; Table 8, Examples
  pEC50: 7.38

## CCCCOc1nc(N)c2[nH]c(=O)n(Cc3ccc(CNC)nc3)c2n1 [Reference example 12, reference compound]
Human TLR7; Table 7, Reference examples
  pEC50: 6.24
Mouse TLR7; Table 9, Reference examples
  pEC50: 6.60

## CCCCOc1nc(N)c2[nH]c(=O)n(Cc3ccc(CNC)cc3)c2n1 [Reference example 14, reference compound]
Human TLR7; Table 7, Reference examples
  pEC50: 7.92
Mouse TLR7; Table 9, Reference examples
  pEC50: 7.64
